Reference: ChEMBL document CHEMBL4732126, “Design, synthesis, and biodistribution studies of new analogues of marine alkaloids: Potent in vitro and in vivo fungicidal agents against Candida spp” (Eur J Med Chem, 2021)
Calls of active or inactive are those of the source. The rule behind the calls is not given here.

How the values were obtained:
[1] = Toxicity in Swiss mouse assessed as body weight at 10 mg/kg, ip measured after 24 hrs (reference value: 36.25 +/- 0.31 g); type: organism-based; conditions: in vivo
Candida albicans [2] = test: Antifungal activity against Candida albicans isolate 5 assessed as reduction in fungal growth incubated for 48 hrs by broth microdilution method; type: functional
Pichia kudriavzevii [3] = test: Antifungal activity against Candida krusei ATCC 34135 assessed as reduction in fungal growth incubated for 48 hrs by broth microdilution method; type: functional
Pichia kudriavzevii [4] = test: Antifungal activity against Candida krusei ATCC 34135 assessed as reduction in fungal growth incubated for 48 hrs in presence of ergosterol by broth microdilution method; type: functional
Candida albicans [5] = test: Antifungal activity against Candida albicans isolate 7 assessed as reduction in fungal growth incubated for 48 hrs by broth microdilution method; type: functional
Candida tropicalis [6] = test: Antifungal activity against Candida tropicalis ATCC 28707 assessed as reduction in fungal growth incubated for 48 hrs by broth microdilution method; type: functional
Candida albicans [7] = test: Fungicidal activity against Candida albicans isolate 7 assessed as fungal killing incubated for 48 hrs followed by plating on SD agar plate; type: functional; conditions: read-out: MFC99.9
Candida albicans [8] = test: Antifungal activity against Candida albicans ATCC 10231 assessed as reduction in fungal growth incubated for 48 hrs by broth microdilution method; type: functional
Candida albicans [9] = test: Antifungal activity against Candida albicans isolate 6 assessed as reduction in fungal growth incubated for 48 hrs by broth microdilution method; type: functional
[10] = Toxicity in Swiss mouse infected with Candida albicans ATCC 10231 assessed as effect on lung at 10 mg/kg, ip administered at 2, 24 and 48 hrs post-infection and measured at 24 hrs after last dose by macroscopic analysis; type: organism-based; conditions: in vivo, 72 h
[11] = Toxicity in Swiss mouse assessed as relative liver weight at 3 mg/kg, ip measured after 24 hrs (reference value: 49.42 +/- 7.17 g); type: organism-based; conditions: in vivo
[12] = Toxicity in Swiss mouse assessed as relative kidney weight at 10 mg/kg, ip measured after 24 hrs (reference value: 14.91 +/- 0.99 g); type: organism-based; conditions: in vivo
[13] = Toxicity in Swiss mouse assessed as body weight at 3 mg/kg, ip measured after 24 hrs (reference value: 36.25 +/- 0.31 g); type: organism-based; conditions: in vivo
Nakaseomyces glabratus = test: Antifungal activity against Candida glabrata ATCC 2001 assessed as reduction in fungal growth incubated for 48 hrs by broth microdilution method; type: functional
Candida albicans [14] = test: Fungicidal activity against Candida albicans ATCC 10231 assessed as fungal killing incubated for 48 hrs followed by plating on SD agar plate; type: functional; conditions: read-out: MFC99.9
[15] = Toxicity in Swiss mouse assessed as relative liver weight at 0.5 mg/kg, ip measured after 24 hrs (reference value: 49.42 +/- 7.17 g); type: organism-based; conditions: in vivo
[16] = Toxicity in Swiss mouse assessed as body weight at 20 mg/kg, ip measured after 24 hrs (reference value: 36.25 +/- 0.31 g); type: organism-based; conditions: in vivo
[17] = Toxicity in Swiss mouse assessed as relative liver weight at 1 mg/kg, ip measured after 24 hrs (reference value: 49.42 +/- 7.17 g); type: organism-based; conditions: in vivo
Candida albicans [18] = test: Fungicidal activity against Candida albicans isolate 6 assessed as fungal killing incubated for 48 hrs followed by plating on SD agar plate; type: functional; conditions: read-out: MFC99.9
Candida albicans [19] = test: Disruption of cell membrane in Candida albicans ATCC 10231 assessed as increase in intracellular leakage at MIC incubated for 24 hrs by UV spectrophotometric analysis; type: cell-based
Candida albicans [20] = test: Antifungal activity against Candida albicans isolate 11 assessed as reduction in fungal growth incubated for 48 hrs by broth microdilution method; type: functional
Candida albicans [21] = test: Antifungal activity against Candida albicans isolate 10 assessed as reduction in fungal growth incubated for 48 hrs by broth microdilution method; type: functional
[22] = Toxicity in Swiss mouse assessed as relative kidney weight at 1 mg/kg, ip measured after 24 hrs (reference value: 14.91 +/- 0.99 g); type: organism-based; conditions: in vivo
Candida albicans [23] = test: Fungicidal activity against Candida albicans isolate 4 assessed as fungal killing incubated for 48 hrs followed by plating on SD agar plate; type: functional; conditions: read-out: MFC99.9
[24] = Toxicity in Swiss mouse infected with Candida albicans ATCC 10231 assessed as effect on heart at 10 mg/kg, ip administered at 2, 24 and 48 hrs post-infection and measured at 24 hrs after last dose by macroscopic analysis; type: organism-based; conditions: in vivo, 72 h
Candida albicans [25] = test: Fungicidal activity against Candida albicans isolate 11 assessed as fungal killing incubated for 48 hrs followed by plating on SD agar plate; type: functional; conditions: read-out: MFC99.9
[26] = Toxicity in Swiss mouse infected with Candida albicans ATCC 10231 assessed as effect on lung weight at 10 mg/kg, ip administered at 2, 24 and 48 hrs post-infection and measured at 24 hrs after last dose; type: organism-based; conditions: in vivo, 72 h
[27] = Toxicity in Swiss mouse assessed as relative kidney weight at 3 mg/kg, ip measured after 24 hrs (reference value: 14.91 +/- 0.99 g); type: organism-based; conditions: in vivo
Pichia kudriavzevii [28] = test: Disruption of cell membrane in Candida krusei ATCC 34135 assessed as increase in intracellular leakage at MIC incubated for 24 hrs by UV spectrophotometric analysis; type: cell-based
[29] = Toxicity in Swiss mouse assessed as relative heart weight at 0.5 mg/kg, ip measured after 24 hrs (reference value: 4.75 +/- 0.60 g); type: organism-based; conditions: in vivo
Candida albicans [30] = test: Fungicidal activity against Candida albicans isolate 13 assessed as fungal killing incubated for 48 hrs followed by plating on SD agar plate; type: functional; conditions: read-out: MFC99.9
[31] = Toxicity in Swiss mouse assessed as relative kidney weight at 20 mg/kg, ip measured after 24 hrs (reference value: 14.91 +/- 0.99 g); type: organism-based; conditions: in vivo
Candida albicans [32] = test: Fungicidal activity against Candida albicans isolate 10 assessed as fungal killing incubated for 48 hrs followed by plating on SD agar plate; type: functional; conditions: read-out: MFC99.9
[33] = Toxicity in Swiss mouse assessed as relative spleen weight at 1 mg/kg, ip measured after 24 hrs (reference value: 4.02 +/- 0.59 g); type: organism-based; conditions: in vivo
[34] = Toxicity in Swiss mouse assessed as relative kidney weight at 0.5 mg/kg, ip measured after 24 hrs (reference value: 14.91 +/- 0.99 g); type: organism-based; conditions: in vivo
Candida tropicalis [35] = test: Disruption of cell membrane in Candida tropicalis ATCC 28707 assessed as increase in intracellular leakage at MIC incubated for 24 hrs by UV spectrophotometric analysis; type: cell-based
[36] = Toxicity in Swiss mouse infected with Candida albicans ATCC 10231 assessed as effect on kidney weight at 10 mg/kg, ip administered at 2, 24 and 48 hrs post-infection and measured at 24 hrs after last dose; type: organism-based; conditions: in vivo, 72 h
[37] = Toxicity in Swiss mouse assessed as relative spleen weight at 10 mg/kg, ip measured after 24 hrs (reference value: 4.02 +/- 0.59 g); type: organism-based; conditions: in vivo
[38] = Toxicity in Swiss mouse infected with Candida albicans ATCC 10231 assessed as effect on heart weight at 10 mg/kg, ip administered at 2, 24 and 48 hrs post-infection and measured at 24 hrs after last dose; type: organism-based; conditions: in vivo, 72 h
Candida tropicalis [39] = test: Fungicidal activity against Candida tropicalis ATCC 28707 assessed as fungal killing incubated for 48 hrs followed by plating on SD agar plate; type: functional; conditions: read-out: MFC99.9

Q: Which Activity [1] does the source give for `[Cl-].[N-]=[N+]=NCCCCCCCCCCCCOCCCc1ccc[n+](Cc2ccccc2)c1` here?
A: The Activity was 31.37 g.

Q: What about the MIC (Candida albicans [2]) of the same molecule?
A: Its MIC is 7.8 µg/mL.

Q: What about the MIC (Pichia kudriavzevii [3]) of the same molecule?
A: Its MIC is 3.9 µg/mL.

Q: What about the MIC (Pichia kudriavzevii [4]) of the same molecule?
A: The MIC was 15.6 µg/mL.

Q: And the MIC (Candida albicans [5])?
A: The MIC was 1.95 µg/mL.

Q: And the MIC (Candida tropicalis [6])?
A: The MIC was 7.8 µg/mL.

Q: What about the MFC (Candida albicans [7]) of the same molecule?
A: The MFC was 3.9 µg/mL.

Q: And the MIC (Candida albicans [8])?
A: Its MIC is 7.8 µg/mL.

Q: And the MIC (Candida albicans [9])?
A: Its MIC is 15.6 µg/mL.

Q: What about the Activity [10] of the same molecule?
A: Its Activity is “Non-Toxic”.

Q: What about the Activity [11] of the same molecule?
A: Its Activity is 45.03 g.

Q: What about the Activity [12] of the same molecule?
A: Its Activity is 15.52 g.

Q: What about the Activity [13] of the same molecule?
A: The Activity was 38.87 g.

Q: And the MIC (Nakaseomyces glabratus)?
A: Its MIC is 7.8 µg/mL.

Q: What about the MFC (Candida albicans [14]) of the same molecule?
A: The MFC was 7.8 µg/mL.

Q: What about the Activity [15] of the same molecule?
A: The Activity was 43.25 g.

Q: And the Activity [16]?
A: Its Activity is 32.5 g.

Q: And the Activity [17]?
A: Its Activity is 44.68 g.

Q: And the MFC (Candida albicans [18])?
A: Its MFC is 31.2 µg/mL.

Q: And the Activity (Candida albicans [19])?
A: The Activity was “Active”.

Q: What about the MIC (Candida albicans [20]) of the same molecule?
A: Its MIC is 7.8 µg/mL.

Q: What about the MIC (Candida albicans [21]) of the same molecule?
A: The MIC was 15.6 µg/mL.

Q: What about the Activity [22] of the same molecule?
A: Its Activity is 13.58 g.

Q: And the MFC (Candida albicans [23])?
A: The MFC was 1.95 µg/mL.

Q: And the Activity [24]?
A: The Activity was “Non-Toxic”.

Q: And the MFC (Candida albicans [25])?
A: The MFC was 7.8 µg/mL.

Q: And the Activity [26]?
A: The Activity was “Non-Toxic”.

Q: What about the Activity [27] of the same molecule?
A: The Activity was 14.73 g.

Q: What about the Activity (Pichia kudriavzevii [28]) of the same molecule?
A: The Activity was “Active”.

Q: What about the Activity [29] of the same molecule?
A: Its Activity is 5.75 g.

Q: What about the MFC (Candida albicans [30]) of the same molecule?
A: The MFC was 7.8 µg/mL.

Q: And the Activity [31]?
A: Its Activity is 15.79 g.

Q: What about the MFC (Candida albicans [32]) of the same molecule?
A: Its MFC is 31.2 µg/mL.

Q: What about the Activity [33] of the same molecule?
A: Its Activity is 4.29 g.

Q: And the Activity [34]?
A: The Activity was 14.41 g.

Q: And the Activity (Candida tropicalis [35])?
A: Its Activity is “Active”.

Q: What about the Activity [36] of the same molecule?
A: Its Activity is “Non-Toxic”.

Q: What about the Activity [37] of the same molecule?
A: Its Activity is 2.85 g.

Q: What about the Activity [38] of the same molecule?
A: Its Activity is “Non-Toxic”.

Q: And the MFC (Candida tropicalis [39])?
A: Its MFC is 15.6 µg/mL.
